Values of other authors in publication PMC3085280 (Tetrahedron, 2009).

System: κ-opioid

Q: Which κ-opioid agonist activity does the source give for `COC(=O)[C@@H]1C[C@H](OC(C)=O)C(=O)[C@H]2[C@@]1(C)CC[C@H]1C(=O)O[C@H](c3ccoc3)C[C@]21C` [Compound 1, Salvinorin A] here?
A: The κ-opioid agonist activity was “potent and selective κ-opioid agonist”.
